Test results from ChEMBL document CHEMBL1201862, “PubChem BioAssay data set” (2004).
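Five concentrations, 48 hours, 96-well plates. GI50 = concentration required for 50% inhibition of growth.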 The source made the active and inactive calls. Cut-off read from the data, not from the text of the source: active = GI50 up to about 1.1 µM and inactive = higher.

Tests used:
Assay in all cases: NCI anticancer screen, dose series, 48 h
[1] = system: LOX IMVI
[2] = system: MOLT-4
[3] = system: SW-620
[4] = system: NCI/ADR-RES
[5] = system: M14
[6] = system: NCI-H226
[7] = system: TK-10
[8] = system: ACHN
[9] = system: BT-549
[10] = system: CAKI-1
[11] = system: COLO 205
[12] = system: UO-31
[13] = system: KM12
[14] = system: DU-145
[15] = system: Hs-578T
[16] = system: MDA-MB-435
[17] = system: MDA-N
[18] = system: EKVX
[19] = system: RPMI-8226
[20] = system: OVCAR-3
[21] = system: NCI-H23
[22] = system: SN12C
[23] = system: K562
[24] = system: HCT-116
[25] = system: A498
[26] = system: Malme-3M
[27] = system: HL-60
[28] = system: OVCAR-8
[29] = system: SF-295
[30] = system: SK-OV-3
[31] = system: UACC-62
[32] = system: U-251
[33] = system: HT-29
[34] = system: CCRF-CEM
[35] = system: SK-MEL-28
[36] = system: 786-0
[37] = system: UACC-257
[38] = system: MCF7
[39] = system: SNB-19
[40] = system: PC-3
[41] = system: SK-MEL-2
[42] = system: OVCAR-5
[43] = system: MDA-MB-231
[44] = system: IGROV-1
[45] = system: SF-539
[46] = system: RXF 393
[47] = system: SK-MEL-5
[48] = system: HCT-15
[49] = system: SF-268
[50] = system: NCI-H522
[51] = system: HOP-62
[52] = system: HCC 2998
[53] = system: NCI-H460
[54] = system: A549
[55] = system: SR
[56] = system: SNB-75

In the case of `O=C(c1ccc(Cl)cc1Cl)N(C(=O)N1CCCCC1)c1ccccc1`, the GI50 [1] is reported as > 100 µM (inactive), the GI50 [2] is reported as > 100 µM (inactive) and the GI50 [3] is reported as > 100 µM (inactive). For the same molecule, the GI50 [4] was > 100 µM (inactive), the GI50 [5] was > 100 µM (inactive) and the GI50 [6] was > 100 µM (inactive). The GI50 [7] was > 100 µM (inactive), the GI50 [8] was > 100 µM (inactive) and the GI50 [9] was > 100 µM (inactive). For the same molecule, the GI50 [10] was > 100 µM (inactive), the GI50 [11] was > 100 µM (inactive) and the GI50 [12] was > 100 µM (inactive). The GI50 [13] was > 100 µM (inactive), the GI50 [14] was > 100 µM (inactive) and the GI50 [15] was > 100 µM (inactive). The GI50 [16] was > 100 µM (inactive), the GI50 [17] was > 100 µM (inactive) and the GI50 [18] was 5.45 µM (inactive). For the same molecule, the GI50 [19] was > 100 µM (inactive), the GI50 [20] was 42.5 µM (inactive) and the GI50 [21] was > 100 µM (inactive). The GI50 [22] was > 100 µM (inactive), the GI50 [23] was > 100 µM (inactive) and the GI50 [24] was > 100 µM (inactive). For the same molecule, the GI50 [25] was > 100 µM (inactive), the GI50 [26] was 5.94 µM (inactive) and the GI50 [27] was > 100 µM (inactive). The GI50 [28] was > 100 µM (inactive), the GI50 [29] was > 100 µM (inactive) and the GI50 [30] was > 100 µM (inactive). For the same molecule, the GI50 [31] was > 100 µM (inactive), the GI50 [32] was > 100 µM (inactive) and the GI50 [33] was > 100 µM (inactive). For the same molecule, the GI50 [34] was > 100 µM (inactive), the GI50 [35] was > 100 µM (inactive) and the GI50 [36] was > 100 µM (inactive). For the same molecule, the GI50 [37] was > 100 µM (inactive), the GI50 [38] was > 100 µM (inactive) and the GI50 [39] was > 100 µM (inactive). The GI50 [40] was > 100 µM (inactive), the GI50 [41] was > 100 µM (inactive) and the GI50 [42] was 69.3 µM (inactive). The GI50 [43] was > 100 µM (inactive), the GI50 [44] was > 100 µM (inactive) and the GI50 [45] was > 100 µM (inactive). The GI50 [46] was > 100 µM (inactive), the GI50 [47] was > 100 µM (inactive) and the GI50 [48] was > 100 µM. For the same molecule, the GI50 [49] was > 100 µM (inactive).
In the case of `Cc1cc(C)nc(NCCC(O)(P(=O)(O)O)P(=O)(O)O)n1`, the GI50 [50] is reported as > 100 µM (inactive), the GI50 [1] is reported as > 100 µM (inactive) and the GI50 [4] is reported as > 100 µM (inactive). For the same molecule, the GI50 [5] was > 100 µM (inactive), the GI50 [6] was > 100 µM (inactive) and the GI50 [7] was > 100 µM (inactive). For the same molecule, the GI50 [8] was > 100 µM (inactive), the GI50 [9] was > 100 µM (inactive) and the GI50 [10] was > 100 µM (inactive). For the same molecule, the GI50 [11] was > 100 µM (inactive), the GI50 [12] was > 100 µM (inactive) and the GI50 [13] was > 100 µM (inactive). For the same molecule, the GI50 [14] was > 100 µM (inactive), the GI50 [51] was > 100 µM (inactive) and the GI50 [17] was > 100 µM (inactive). The GI50 [52] was > 100 µM (inactive), the GI50 [18] was > 100 µM (inactive) and the GI50 [20] was 39.2 µM (inactive). For the same molecule, the GI50 [21] was > 100 µM (inactive), the GI50 [24] was > 100 µM (inactive) and the GI50 [26] was > 100 µM (inactive). The GI50 [29] was > 100 µM (inactive), the GI50 [30] was > 100 µM (inactive) and the GI50 [31] was > 100 µM (inactive). For the same molecule, the GI50 [53] was > 100 µM (inactive), the GI50 [36] was > 100 µM (inactive) and the GI50 [37] was > 100 µM (inactive). For the same molecule, the GI50 [38] was 92.5 µM (inactive), the GI50 [39] was > 100 µM (inactive) and the GI50 [40] was > 100 µM (inactive). For the same molecule, the GI50 [42] was > 100 µM (inactive), the GI50 [54] was > 100 µM (inactive) and the GI50 [43] was > 100 µM (inactive). The GI50 [44] was > 100 µM (inactive), the GI50 [45] was > 100 µM (inactive) and the GI50 [46] was > 100 µM (inactive). For the same molecule, the GI50 [47] was > 100 µM (inactive), the GI50 [48] was > 100 µM and the GI50 [49] was > 100 µM (inactive).
In the case of `CCOC(=O)C(O)(NC(=O)NC(O)(C(=O)OCC)C(F)(F)F)C(F)(F)F` (stereo not given), the GI50 [1] is reported as > 100 µM (inactive), the GI50 [2] is reported as > 100 µM (inactive) and the GI50 [4] is reported as > 100 µM (inactive). For the same molecule, the GI50 [8] was > 100 µM (inactive), the GI50 [11] was > 100 µM (inactive) and the GI50 [12] was > 100 µM (inactive). The GI50 [17] was > 100 µM (inactive), the GI50 [52] was > 100 µM (inactive) and the GI50 [19] was > 100 µM (inactive). The GI50 [21] was > 100 µM (inactive), the GI50 [55] was > 100 µM (inactive) and the GI50 [22] was > 100 µM (inactive). For the same molecule, the GI50 [23] was > 100 µM (inactive), the GI50 [24] was > 100 µM (inactive) and the GI50 [25] was > 100 µM (inactive). For the same molecule, the GI50 [27] was > 100 µM (inactive), the GI50 [30] was > 100 µM (inactive) and the GI50 [32] was > 100 µM (inactive). For the same molecule, the GI50 [33] was > 100 µM (inactive), the GI50 [34] was > 100 µM (inactive) and the GI50 [35] was > 100 µM (inactive). The GI50 [36] was > 100 µM (inactive), the GI50 [37] was > 100 µM (inactive) and the GI50 [39] was > 100 µM (inactive). For the same molecule, the GI50 [40] was > 100 µM (inactive), the GI50 [41] was > 100 µM (inactive) and the GI50 [42] was > 100 µM (inactive). The GI50 [56] was > 100 µM (inactive), the GI50 [45] was > 100 µM (inactive) and the GI50 [46] was > 100 µM (inactive). The GI50 [48] was > 100 µM and the GI50 [49] was > 100 µM (inactive).
